Tests used:
[1] = tested on: Enterocytozoon bieneusi; assay: Clinical evaluation of AIDS patients with chronic diarrhoea treated with IPA (stool examinations, endoscopic biopsies); type: in vivo; conditions: E. bieneusi identified prior to treatment
Text: Chronic diarrhoea accompanied by wasting is one of the most frequent problems associated with HIV infection. […] A new genera and species of microspora, Enterocytozoon bieneusi, was identified in ultrastructural studies of intestinal biopsies from AIDS patients with unexplained chronic diarrhoea prior to treatment with IPA.
E. bieneusi microsporidiosis (intestinal microsporidiosis) is diagnosed with increasing frequency in AIDS patients with chronic diarrhoea of unknown origin. Forty-seven cases have been reported in the United States, Africa and Europe. […] Until now, diagnosis depended upon light and electron microscopy studies of small bowel biopsies, particularly of the jejunum. Diagnosis is suspected on histological findings either on Giemsa-stained smears and/or hematoxylin-eosin or Giemsa-stained paraffin sections: identification of oval parasites measuring 2-9 u.m and clusters of refractile spores (1-1.5 u.m) in villous enterocytes from just above the mouth of the crypts to the tips of the villi. These organisms are located in the supranuclear position of the cytoplasm. […] Recently reported recovery of spores from faeces, would simplify diagnosis. Unlike other species of microspora, E. bieneusi has not been identified from different organs such as brain and kidney. A proportion of transient diarrhoeas of unknown etiology in AIDS patients may be related to E. bieneusi. […]

[2] = tested on: PBL; assay: Growth of PBL following cocultivation of patient's lymphocytes with PHA-PBL; type: cell-based, human; conditions: 30 u.M or lower; up to 10 days in culture
[3] = tested on: herpes simplex type 1 (HSV-1); assay: M413 cells, HSV-1; type: cell-based; conditions: M413 cell line of human fibroblasts
Description: A procedure similar to that described for Experiment la(g) was followed except herpes simplex virus- type I (HSV-I) was used.
The experiments were performed in duplicate M413 cells which were set up in Titer-Tek slides (4 well, glass) and those that were confluent within one day were used in experiments. Within 24-48 hours, cell densities were checked to ensure sufficiency to proceed with infection. Stock HSV-1 was serially diluted in 10-fold steps (1, 10^-1, 10-^2, 10-^3, 10-^4) to provide 2 ml of each dilution: 0.2/1.8 ml diluent to finally yield overall dilutions of approximately 10^-1, 10^-2, 10-^3, 10^-4, 10-^5. Virus absorption was allowed for 90 minutes at 37 °C, after which time the inoculum was removed and replaced with solutions containing IPA at the concentrations as indicated in Table la(j). The slide was incubated for 3 days and stained with the following antisera: monoclonal antibody (MAB) to HSV-1 virus capsid antigen (VCA) at 1:20; control mores IgG at 1:20.

[4] = tested on: HIV-1; assay: HIV-1 production from patients' lymphocytes cocultured with PHA-stimulated normal PBL, p24 antigen capture; type: cell-based; conditions: 3.75 µM or higher; Figure 14
Description: HIV-1 production from an AIDS patients' lymphocytes was carried out as described previously. Briefly, 10x10^6 patients' lymphocytes were cocultured with 5x10^6 PHA-stimulated normal PBL in RPMI 1640 medium containing 20% FBS, 5% interleukin 2 (Cellular Products, Buffalo, NY) and various concentrations of IPA. The culture was continued for 4 weeks. The culture was fed twice a week with 2-3x10^6 PHA-stimulated normal PBL. Culture medium was withdrawn twice a week and tested for the presence of HIV by the antigem capture test. Culture medium was replaced with new medium with or without drug at 3-4 days intervals.
A study of IPA inhibition of HIV-1 production from lymphocytes of a HIV-1 seropositive patient was carried out. For this purpose, lymphocytes from an AIDS patient and an asymtomatic patient were cocultured with PHA stimulated PBL in the presence or absence of IPA. Results shown in Figure 14 indicate that IPA inhibited HIV-1 production in a dose dependent manner. […] In contrast, HIV-1 was detected in untreated cultures as early as 7 days following cocultivation.

[5] = tested on: RH strain T. gondii; assay: Growth of Toxoplasma gondii in human foreskin fibroblasts, tritiated uracil incorporation; type: cell-based; conditions: various concentrations; Figure 24
Description: An experiment was conducted to evaluate the in-vitro effects of IPA on Toxoplasma Gondii by infecting human foreskin fibroblast monolayers (four replicates per condition) with RH strain T. gondii in the presence of various concentrations of IPA dissolved in Eagle's minimum essential medium without fetal bovine serum. After an initial four hour period of infection, the media and any T. gondii which had not entered the host cells were removed and replaced by media containing 1 u.M tritiated uracil per milliter, and incubated overnight. The mono-layers were lysed, nucleic acids precipitated by trichloroacetic acid, and the precipitates recovered on glass fiber filters. Radioactivity on the filters was measured in a Beckman scintillation spectrometer. Controls included fibroblast monolayers without T. gondii (cell control) and fibroblast monolayers infected by the same inoculum of T. gondii as the IPA treated monolayers (Tg control). The units of uracil incorporation are somewhat lower here because of the lower inoculum of T. gondii.

[6] = tested on: H9 cells; assay: Cytotoxicity on uninfected H9 cells, 10 days continuous exposure; type: cell-based, human; conditions: read-out: ID50 - The concentration of IPA which kills 50% of the cells
Description: The "Percent Dead Cells" are taken from Tables la(d) (iii) and la(d) (v) using the 10-day value, and the therapeutic index have been calculated for each drug concentration. The results of IPA are also graphed in Figures 16 and 17. Cytotoxicity (the dashed line) is calculated as the percent live cells.
The availability of toxicity data collected in the same time frame as required for determination of antiviral effectiveness allowed determination of values for two different cell lines. Figures 16 and 17 illustrate the curves obtained by plotting the cytotoxicity of IPA (as a percent of the control cell viability) versus the percent of inhibition of HIV-1 replication (as a percent of the control titer) when H9 and 81-66-45 cells were tested. The cytotoxicity data obtained with 10 days continuous exposure, using uninfected cells, were used since 10 days was the length of time required to carry out the infectivity test. As is apparent from Tables la-(d) (ii) - la(d) (v), toxicity is much lower when the drug is added to cells for one day and then removed, or when cells are exposed for only 1 or 4 days. It is difficult to mimic in-vivo exposure times, particularly if metabolites are more toxic than the parent compound and are readily cleared in-vivo but not in-vitro.

## CC(C)=CCNc1ncnc2c1ncn2[C@@H]1O[C@H](CO)[C@@H](O)[C@H]1O [IPA, N^6-(Δ^2-isopentenyl) adenosine]
[1]
  pathogen found on clinical evaluation: fails to identify any pathogen
[2]
  cytotoxic effect on the growth of viable PHA stimulated PBL: did not have any significant cytotoxic effect
[3]
  in-vitro levels of herpes simplex type 1 (HSV-1): reduces
[4]
  Virus production (HIV-1 p24 antigen capture assay): completely blocked
[5]
  effect on the growth of T. gondii: inhibitory effect
[6]
  CC50: 50 µM

Reference: patent EP0462621A2, “Use of particular compounds for manufacture of pharmaceutical formulations for treatment against various parasites, mycoplasmas, other indications and other infections” (Prendergast, Patrick Thomas, priority 1990, dated 1991)
